Key:
[1] = test system: thrombin-induced focal cerebral ischemic model; experiment: Thrombin-induced focal cerebral ischemic model: survival and neurological symptom score; format: in vivo, male Wistar rats
Protocol: Twenty male Wistar rats (8-weeks age) were used as one group. The rats were anesthetized with halothane, followed by incision and then subjected to carotid artery shunting. A polyethylene catheter containing thrombin (10 international units) was catheterized into the carotid artery, and […] of blood was sucked and reserved in the catheter for 10 minutes. Then, thrombus formed in the catheter was infused into the carotid artery together with thrombin (J. Cereb. Blood Flow Metab., 17, 123 (1997)).
The neurological symptoms of said rats were scored according to the method as described in Brain Res., 452, 323 (1988). The evaluation of score was carried out at 6 hours, 24 hours, 48 hours and 72 hours after infusion of thrombin, and the scores were accumulated. The survival period was determined by monitoring surviving or dead rats at intervals of one hour for the first 72 hours after the infusion of thrombin.
From forty minutes after thrombin infusion, t-PA (Activacin 100,000 international units, product of Kyowa Hakko Kogyo Co., Ltd.) was continuously administered in an amount of 33 μL/min to the anesthetized rats for 15 minutes. (R)-2-propyloctanoic acid (hereinafter referred to as compound A) in an amount of 10 mg/mL/kg was administered through tail vein of the rats three times at 6 hours, 24 hours and 48 hours after the infusion of thrombin.

dogs = conditions: dog, in vivo, 100 mg/kg
Description: The toxicity of the astrocyte function-improving agent of the present invention is sufficiently very low and has been confirmed to be safe enough for pharmaceutical use.

[2] = accumulated score, rats surviving 72 h, average ± standard error

CCCCCC[C@@H](CCC)C(=O)O [Compound A, (R)-2-propyloctanoic acid]
Survival rate after 72 hours ([1]; 72 hours after thrombin infusion, 20 rats per group, * p<0.05 vs control (Log-rank test)): 60.0%*^)
No. of surviving rats ([1]; 72 hours after thrombin infusion, 20 rats per group, t-PA infused from 40 min for 15 min, compound A 10 mg/mL/kg i.v. at 6, 24, 48 h): 12
Neurological symptom score, 0 to 6 hours [1, 2]: 3.4 ± 0.1
Neurological symptom score, 0 to 24 hours [1, 2]: 3.3 ± 0.1
Neurological symptom score, 0 to 48 hours [1, 2]: 3.3 ± 0.1
Neurological symptom score, 0 to 72 hours [1, 2]: 3.2 ± 0.2
Death after single intravenous administration (dogs): no death was observed
